In PMC6278341 (Molecules, 2018):
Values joined by “and” are separate entries in the source; they are usually repeats but may differ in a detail not shown here. Equal entries are not always repeated.

What was measured:
[1] = molecular target: T1, D4 (Homo sapiens, UniProt P21917); assay: Off target binding, D4 receptor
T1 sequence (P21917 1-419): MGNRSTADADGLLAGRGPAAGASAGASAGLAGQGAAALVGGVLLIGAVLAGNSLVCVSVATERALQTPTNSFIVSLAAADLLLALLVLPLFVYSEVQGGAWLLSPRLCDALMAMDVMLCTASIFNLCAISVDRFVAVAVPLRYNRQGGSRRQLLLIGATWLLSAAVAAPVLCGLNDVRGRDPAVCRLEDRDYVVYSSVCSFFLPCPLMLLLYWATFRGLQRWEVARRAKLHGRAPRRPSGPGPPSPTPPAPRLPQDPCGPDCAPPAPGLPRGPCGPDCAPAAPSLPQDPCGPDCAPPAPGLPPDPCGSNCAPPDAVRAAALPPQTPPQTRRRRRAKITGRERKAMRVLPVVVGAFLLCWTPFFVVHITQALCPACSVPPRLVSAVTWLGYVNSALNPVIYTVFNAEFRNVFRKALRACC
Description: (§1) Off target screening data were obtained through the NIDA Addiction Treatment Discovery Program contract (ADA151001) with Oregon Health & Science University.

[2] = molecular target: D1 (Homo sapiens, UniProt P21728); assay: Off target binding, D1 receptor
Chain of D1 (P21728 whole entry): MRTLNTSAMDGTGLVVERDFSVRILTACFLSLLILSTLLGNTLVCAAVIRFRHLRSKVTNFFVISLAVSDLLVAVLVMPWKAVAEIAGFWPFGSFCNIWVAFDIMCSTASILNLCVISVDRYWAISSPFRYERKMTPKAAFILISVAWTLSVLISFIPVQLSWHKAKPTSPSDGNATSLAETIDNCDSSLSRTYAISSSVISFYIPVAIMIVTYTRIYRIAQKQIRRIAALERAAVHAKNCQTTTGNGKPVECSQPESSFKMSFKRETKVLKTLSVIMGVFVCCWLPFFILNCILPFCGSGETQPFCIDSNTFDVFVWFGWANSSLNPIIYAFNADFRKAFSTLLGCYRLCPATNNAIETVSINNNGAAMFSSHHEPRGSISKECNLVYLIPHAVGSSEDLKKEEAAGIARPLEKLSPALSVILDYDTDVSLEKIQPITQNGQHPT
Description: as §1

[3] = molecular target: T2, 5-HT1A (Homo sapiens, UniProt P08908); assay: Off target binding, 5-HT1A receptor
T2 sequence (P08908 1-422): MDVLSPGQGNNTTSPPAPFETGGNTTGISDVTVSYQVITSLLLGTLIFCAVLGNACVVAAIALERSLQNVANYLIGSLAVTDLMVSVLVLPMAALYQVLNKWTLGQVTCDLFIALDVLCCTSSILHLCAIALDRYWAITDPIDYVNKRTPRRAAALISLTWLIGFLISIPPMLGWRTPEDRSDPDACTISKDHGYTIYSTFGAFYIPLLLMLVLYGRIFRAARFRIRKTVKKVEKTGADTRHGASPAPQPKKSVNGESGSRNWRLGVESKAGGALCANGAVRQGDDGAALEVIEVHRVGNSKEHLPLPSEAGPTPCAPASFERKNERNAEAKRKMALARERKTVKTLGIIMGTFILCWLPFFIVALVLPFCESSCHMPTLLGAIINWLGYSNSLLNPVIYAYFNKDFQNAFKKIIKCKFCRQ
Description: as §1

[4] = molecular target: 5-HT2A (Homo sapiens, UniProt P28223); assay: Off target binding, 5-HT2A receptor
Chain of 5-HT2A (P28223 whole entry, species assumed): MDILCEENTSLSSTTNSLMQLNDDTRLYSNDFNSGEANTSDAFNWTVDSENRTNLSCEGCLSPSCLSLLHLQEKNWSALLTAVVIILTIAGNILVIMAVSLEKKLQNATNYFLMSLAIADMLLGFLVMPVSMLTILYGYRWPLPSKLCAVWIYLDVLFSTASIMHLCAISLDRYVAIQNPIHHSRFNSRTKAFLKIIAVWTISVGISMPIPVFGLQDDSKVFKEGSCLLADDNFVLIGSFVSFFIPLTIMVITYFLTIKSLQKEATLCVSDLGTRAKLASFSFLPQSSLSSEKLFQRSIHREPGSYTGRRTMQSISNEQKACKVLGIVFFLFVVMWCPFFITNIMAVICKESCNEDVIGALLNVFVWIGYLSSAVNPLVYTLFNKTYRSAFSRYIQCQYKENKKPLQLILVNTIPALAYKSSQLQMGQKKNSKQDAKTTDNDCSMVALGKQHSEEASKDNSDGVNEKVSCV
Description: as §1

[5] = Cell uptake percentage in rat whole blood in vitro; format: in vitro ADME; conditions: in vitro at 37 °C, n = 3
Description: The capillary tubes were then centrifuged, and Hct determined using a StatSpin® CritSpin™ Microhematocrit system (Los Angeles, CA, USA). Aliquots of anticoagulated rat blood (250 µL) were placed in three Eppendorf tubes (1.5 mL). […] Then whole blood (50 µL) was removed from each tube and counted in the γ-counter. The tubes were then centrifuged before removing plasma (50 µL) for γ-counting.

[6] = Rat ex vivo measurements (radiometabolites and tissue concentrations); format: in vivo; conditions: for Unmetabolized [^11C]1: 30 min after i.v. injection
Description: The rats were then immediately sacrificed by decapitation, and their cortices, cerebella, and striata were excised. Each of the brain tissues was placed in MeCN (1 mL) and counted in a γ-counter. […] Water (500 μL) was then added and the tissues were further homogenized and counted in the γ-counter for calculating recoveries into MeCN. The homogenates were centrifuged at 10,000× g for 1 min. […] After separating plasma from blood cells, plasma samples (200 μL) were counted in γ-counter and plasma aliquots (450 μL) were each placed in MeCN (720 μL) along with of carrier 1 (5 μg) for deproteinization. After mixing the samples well, H2O (100 μL) was added. The samples were further mixed well, counted in a γ-counter, and centrifuged at 10,000× g for 1 min. Supernatants were injected onto the radio-HPLC and analyzed under the above conditions. All precipitates were counted in the γ-counter for calculating recoveries in the supernatants that were injected onto the HPLC.

[7] = Tissue stability, human plasma and brain homogenate; format: in vitro ADME; conditions: at least 30 min at 37 °C
Description: (§2) These tissues were stored frozen at −70 °C but thawed on the day of analysis. […] Plasma analysis was performed as reported previously.

[8] = Lipophilicity (logD7.4), 1-octanol/sodium phosphate buffer; format: physicochemical; conditions: room temperature, 1-octanol/sodium phosphate buffer pH 7.4, n = 6
Description: The radioligand in ethanol/saline was placed in sodium phosphate buffer (0.15 M, pH 7.4) for the duration of the experiment followed by the determination of its radiochemical purity to obtain information on its stability in buffer. […] Aliquots (1.0 mL) were distributed to eight borosilicate disposable culture tubes (13 × 100 mm). […] Radioactivities from six tubes were extracted with 1-octanol. Extraction was performed by vortexing the tubes with their content for 1 min. The tubes were centrifuged for 1 min. The organic and the aqueous phases were separated. Each phase was then sampled 50 μL and 200 μL respectively and counted separately in a well-type γ-counter (model 1480 Wizard; Perkin-Elmer) with an electronic window set between 360 and 1800 keV. The remaining two tubes, contained the radioactivity in buffer and served as stability measures for the radioligand. […] The radiochemical composition of the aqueous buffer after extraction with 1-octanol was determined with HPLC on an X-Terra C18 column (10 μm, 7.8 × 300 mm; Waters Corp., Milford, MA, USA) eluted with MeOH:H2O:Et3N (80:20:0.1 v/v/v) at 4.0 mL/min. […] The resulting radiochromatograms provided correction factors for the γ-counter counts to determine parent radioactivity only (corrected radioactivity). […] LogD7.4 was calculated according to the following formula:(1) logD7.4=log(cpm organic phase/corrected cpm aqueous phase)

[9] = Plasma free fraction by ultrafiltration; format: in vitro ADME; conditions: human plasma, n = 3; read-out: Human plasma free fraction (fp)
Description: The mixture was incubated at room temperature for 10 min and then processed as described previously. The ultrafiltration components that contained high radioactivity were allowed to decay to within the optimal range of the γ-counter before they were counted. Quantification of the ultrafiltrates was performed gravimetrically.

[10] = molecular target: T3, D3R (Rattus norvegicus, UniProt P19020); assay: PET imaging in rats; format: in vivo; conditions: for Peak brain radioactivity concentration: rat PET
T3 construct: from tissue; host or cells: brain of living Sprague-Dawley rats
T3 sequence (P19020 whole entry): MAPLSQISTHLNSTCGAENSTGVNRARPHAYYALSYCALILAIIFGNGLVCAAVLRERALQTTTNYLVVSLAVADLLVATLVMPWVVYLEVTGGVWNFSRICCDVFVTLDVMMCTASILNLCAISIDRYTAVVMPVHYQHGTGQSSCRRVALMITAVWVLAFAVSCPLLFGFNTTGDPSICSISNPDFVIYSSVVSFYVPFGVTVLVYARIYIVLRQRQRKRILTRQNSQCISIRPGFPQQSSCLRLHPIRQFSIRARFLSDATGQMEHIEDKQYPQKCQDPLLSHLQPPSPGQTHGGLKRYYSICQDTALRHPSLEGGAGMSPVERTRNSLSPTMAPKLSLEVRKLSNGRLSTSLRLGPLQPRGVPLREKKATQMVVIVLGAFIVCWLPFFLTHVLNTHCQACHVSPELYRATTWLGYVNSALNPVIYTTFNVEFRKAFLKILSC
Description: (§3) In some rats, tariquidar (16 mg/kg, i.v.) was administered at 15 min before radioligand injection. […] For experiments in mice (wild type and P-gp/BCRP knock-out; male; Taconic FVB.129P2-Abcb1a^tm1BorAbcb1b^tm1BorAbcg2^tm1AhsN7; 27 ± 1.1 g), scans were acquired with a microPET Focus 120 camera for a duration of 90 min. […] Monkey (male rhesus macaque, 9.9 kg) experiments were acquired using microPET Focus 220 (Siemens Medical Solutions, Knoxville TN) for a duration of 90 min.
(§4) Images were reconstructed using Fourier rebinning followed by 2D OSEM with attenuation correction for rats and monkey and without attenuation correction for mice. Scatter correction was applied only for monkey. Volume of interests were delineated manually for rats and mice, and with a co-registered MRI template for monkey. All radioactivity was decay-corrected and expressed as standardized uptake value (SUV) which is radioactivity concentration corrected for subject weight and administered dose. Time activity curves in SUV were obtained and compared between conditions. The PET data analysis was performed using PMOD.

[11] = tested on: P-gp/BCRP; assay: PET imaging in wild type and P-gp/BCRP knock-out mice; format: in vivo, mouse
Description: as §3, §4

[12] = Tissue stability, monkey brain homogenate; format: in vitro ADME; conditions: at least 30 min at 37 °C
Description: as §2

[13] = Stability of formulated radioligand in saline containing ethanol; format: physicochemical; conditions: saline containing ethanol (10% v/v), up to 2.5 h; initial 99%
[14] = Tissue stability, rat whole blood, plasma and brain homogenate; format: in vitro ADME; conditions: at least 30 min at 37 °C
Description: as §2

[15] = tested on: D3R; assay: PET imaging in monkey; format: in vivo, rhesus macaque; conditions: for AUC 0-90 min higher than at baseline: tariquidar
Description: as §3, §4

[16] = set-up: method as in PMID 19573609; conditions: cited from earlier work

COc1c(Cl)cccc1N1CCN(CCCCNC(=O)c2cc3ccccc3[nH]2)CC1 [Compound 1, N-(4-(4-(3-chloro-2-methoxyphenyl)piperazin-1-yl)butyl)-1H-indole-2-carboxamide]
Ki [1]: 300 ± 100 nM | Ki [2]: 2290 ± 340 nM | Ki [3]: 92.3 ± 8 nM | Ki [4]: 19.7 ± 1.4 nM

O=C(NCCCCN1CCN(c2cccc(Cl)c2O)CC1)c1cc2ccccc2[nH]1 [Compound 2, N-(4-(4-(3-Chloro-2-hydroxyphenyl)piperazin-1-yl)butyl)-1H-indole-2-carboxamide]
melting point: 148 to 149 °C

[11CH3]Oc1c(Cl)cccc1N1CCN(CCCCNC(=O)c2cc3ccccc3[nH]2)CC1 [[^11C]1, [O-methyl-^11C]N-(4-(4-(3-Chloro-2-methoxyphenyl)-piperazin-1-yl)butyl)-1H-indole-2-carboxamide]
cellular uptake in rat whole blood [5]: 55.2 ± 1.1% | increase of rat brain tissue concentration, tariquidar-treated vs untreated ([6]; ex vivo, 30 min, tariquidar 16 mg/kg i.v.): 2.4–2.6 fold | Unmetabolized [^11C]1 ([6]; rat cerebellum, baseline): 98.8% | [^11C]1 Concentration ([6]; rat cerebellum, baseline, ex vivo 30 min): 1.20 SUV | Unmetabolized [^11C]1 ([6]; rat cerebellum, tariquidar-treated): 98.8% | [^11C]1 Concentration ([6]; rat cerebellum, tariquidar-treated, ex vivo 30 min): 2.84 SUV | Unmetabolized [^11C]1 ([6]; rat cortex, baseline): 99.0% | [^11C]1 Concentration ([6]; rat cortex, baseline, ex vivo 30 min): 1.33 SUV | Unmetabolized [^11C]1 ([6]; rat cortex, tariquidar-treated): 98.7% | [^11C]1 Concentration ([6]; rat cortex, tariquidar-treated, ex vivo 30 min): 3.49 SUV | Unmetabolized [^11C]1 ([6]; rat plasma, baseline): 76% and 76.1% | [^11C]1 Concentration ([6]; rat plasma, baseline, ex vivo 30 min after i.v. injection): 0.06 SUV | [^11C]1 Concentration ([6]; rat plasma, tariquidar-treated (16 mg/kg, i.v.), ex vivo 30 min): 0.04 SUV | Unmetabolized [^11C]1 ([6]; rat plasma, tariquidar-treated): 69% and 68.9% | Unmetabolized [^11C]1 ([6]; rat striatum, baseline): 99.3% | [^11C]1 Concentration ([6]; rat striatum, baseline, ex vivo 30 min): 1.36 SUV | Unmetabolized [^11C]1 ([6]; rat striatum, tariquidar-treated): 98.8% | [^11C]1 Concentration ([6]; rat striatum, tariquidar-treated, ex vivo 30 min): 3.53 SUV | [^11C]1 Concentration ([6]; rat whole blood, baseline, ex vivo 30 min): 0.09 SUV | [^11C]1 Concentration ([6]; rat whole blood, tariquidar-treated, ex vivo 30 min): 0.07 SUV | stability ([7]; human brain homogenate): 99.8% | stability ([7]; human plasma): 99.3% | logD [8]: 3.33 ± 0.13 | fraction unbound at 10 min [9]: 0.0015 ± 0.0001 | Peak brain radioactivity concentration ([10]; after tariquidar (16 mg/kg, i.v.)): 3.4 SUV | Peak brain radioactivity concentration ([10]; baseline): 1.1 SUV | change in brain TACs on BP897 challenge ([10]; rats, tariquidar 16 mg/kg i.v., BP897 0.5 mg/kg i.v. 10 min before or 15 min after radioligand): No major changes | change in brain TACs on spiperone challenge ([10]; rats, tariquidar 16 mg/kg i.v., spiperone 1.0 mg/kg i.v. 10 min before or 15 min after radioligand): No obvious changes | peak brain uptake ([11]; P-gp/BCRP KO mice): 1.6 SUV | efflux transporter substrate behaviour ([11]; rodents): avid brain efflux transporter substrate | peak brain uptake ([11]; wild type mice): 0.7 SUV | stability [12]: 100% | radiochemical purity after storage (stability) [13]: 96% | stability ([14]; rat brain homogenate): 99.4% | stability ([14]; rat plasma): 98.8% | stability ([14]; rat whole blood): 100% | peak whole brain radioactivity uptake ([15]; baseline): 2−3 SUV | AUC 0-90 min higher than at baseline ([15]; occipital cortex): ~ 20% | AUC 0-90 min higher than at baseline ([15]; putamen): 70%

C[C@@H](N[C@@H]1C[C@H](c2cccc(O[11CH3])c2)N(c2ccc(C(F)(F)F)cc2)C1=O)c1ccccc1 [[^11C]MePPEP]
plasma free fraction (fp) [16]: 0.05 ± 0.01%
